Source: patent publication US9822414B2, “In vitro method for predicting in vivo genotoxicity of chemical compounds” (priority 2011, dated 2017)
Values joined by “and” are separate entries in the source; they are usually repeats but may differ in a detail not shown here. Identical values can stand only once. Like-named read-outs stand apart in the source and are kept apart here.

Key:
[1] = tested on: PWWP2B; test: Gene expression of PWWP2B in HepG2 cells exposed to compound (microarray, log2 treatment:control ratio); type: cell-based, human
[2] = tested on: rodents; settings: cited from earlier work
[3] = tested on: conventional in vitro genotoxicity assays; settings: cited from earlier work; for Results in the conventional in vitro genotoxicity assays: see Table 5
[4] = tested on: SLC40A1; test: Gene expression of SLC40A1 in HepG2 cells exposed to compound (microarray, log2 treatment:control ratio); type: cell-based, human; settings: HepG2 cells; for Log2 treatment: control ratio SLC40A1: 24 h exposure, Ames negative compounds, one line per replicate of triplicate experiments; for SLC40A1: expression versus reference value, single measurement of three
[5] = tested on: PNMA6A; test: Gene expression of PNMA6A in HepG2 cells exposed to compound (microarray, log2 treatment:control ratio); type: cell-based, human; settings: HepG2 cells; for Log2 treatment: control ratio PNMA6A: 24 h exposure, Ames negative compounds, one line per replicate of triplicate experiments; for PNMA6A: expression versus reference value, single measurement of three
[6] = tested on: C10orf65/HOGA1; test: Gene expression of C10orf65/HOGA1 in HepG2 cells exposed to compound (microarray, log2 treatment:control ratio); type: cell-based, human; settings: for Log2 treatment: control ratio C10orf65/HOGA1: 24 h exposure, Ames negative compounds, one line per replicate of triplicate experiments; for C10orf65/HOGA1: expression versus reference value, single measurement of three
[7] = tested on: Salmonella typhimurium; settings: cited from earlier work
[8] = tested on: HepG2 cell; test: Class prediction of in vivo genotoxicity by the method of the invention (Ames stratification plus three-gene expression in HepG2); settings: for Prediction (class prediction results using the method of the invention): 62 compounds, three replicates, HepG2 24 h; for At least ⅔ genes +?: per single measurement, GTX when at least two out of three genes above reference value
[9] = tested on: HepG2 cell
[10] = standard in vivo genotoxicity designation

| Structure (SMILES) | In vitro GTX [3] | Log2 treatment: control ratio SLC40A1 [4] | SLC40A1 [4] | Log2 treatment: control ratio PNMA6A [5] | Log2 treatment: control ratio C10orf65/HOGA1 [6] | C10orf65/HOGA1 [6] | Ames [7] | Standard [2, 10] | Prediction (class prediction results using the method of the invention) [8] | PNMA6A [5] | other results |
| --- | --- | --- | --- | --- | --- | --- | --- | --- | --- | --- | --- |
| OCCCl [2-Cl] | + |  |  |  |  |  |  |  |  |  | PWWP2B above or below the reference value [1]: + (Plus sign indicates a value above the reference value); Standard (in vivo genotoxicity designation) ([2]; in vivo): NGTX; Results in the conventional in vitro genotoxicity assays [3]: positive results |
| CC1=CC(=O)[N-]S(=O)(=O)O1.[K+] [ASK] | − | −0.348 and −0.221 and 0.08 | − (below the reference value) | 0.264 and 0.161 and −0.677 | 0.014 and −0.015 and 0.083 | − (below the reference value) | − | NGTX | NGTX |  |  |
| Nc1ccccc1C(=O)O [AnAc] | + |  | − (below the reference value) |  |  | − (below the reference value) | − | NGTX | NGTX |  | Log2 treatment: control ratio SLC40A1 ([4]; listed as AA): −0.174 and −0.49 and 0.007; Log2 treatment: control ratio PNMA6A ([5]; listed as AA): 0.167 and −0.628 and 0.562; Log2 treatment: control ratio C10orf65/HOGA1 ([6]; listed as AA): −0.045 and −0.061 and 0.002 |
| Clc1ccc(C(c2ccc(Cl)cc2)C(Cl)(Cl)Cl)cc1 [DDT] | − | 0.685 and 0.118 and 0.493 |  | −0.223 and 0.118 and −0.515 | −0.925 and 0.469 and −0.025 |  | − | NGTX | NGTX | − (below the reference value) |  |
| CCOP(=S)(OCC)Oc1cc(C)nc(C(C)C)n1 [DZN] | − | 0.569 and 0.773 and 1.44 | + (above the reference value) | −0.352 and −0.624 and −0.03 | −1.12 and −0.738 and −1.077 | − (below the reference value) | − | NGTX | NGTX | − (below the reference value) |  |
| OC[C@@H](O)[C@@H](O)[C@H](O)[C@H](O)CO [Dman] | − | 0.005 and −0.155 and −0.035 | − (below the reference value) | −0.035 and 0.459 and 0.01 | 0.022 and −0.159 and 0.023 | − (below the reference value) | − | NGTX | NGTX |  |  |
| C[C@]12CC[C@@H]3c4ccc(O)cc4CC[C@H]3[C@@H]1CC[C@@H]2O [E2, Estradiol] |  |  | − (below the reference value) |  |  |  |  |  | NGTX | − (below the reference value) |  |
| C=CC(=O)OCC [EtAc, Ethylacrylate] | + | −0.448 and 0.634 and 0.031 |  | 0.375 and 0.243 and 0.409 | 0.391 and 0.429 and 0.624 | + (above the reference value) | − |  | GTX |  | Standard ([2]; in vivo): NGTX; Average result over three measurements [8]: GTX; At least ⅔ genes +? [8]: GTX |
| CCc1ccccc1 [EthylB] | + | −0.23 and −0.141 and 0.295 | − (below the reference value) | 0.313 and 0.434 and 0.392 | −0.18 and 0.116 and −0.084 | − (below the reference value) | − | NGTX | NGTX | + (above the reference value) |  |
| CCOc1ccc(NC(C)=O)cc1 [Phen] | + | −0.646 and 0.127 and −0.048 | − (below the reference value) | −0.023 and 0.218 and −0.237 | 0.043 and 0.056 and 0.034 | − (below the reference value) | − | NGTX | NGTX | − (below the reference value) |  |
| Oc1cccc(O)c1 [RR, Resorcinol] | + |  | + (above the reference value) |  |  | + (above the reference value) |  | NGTX | GTX | + (above the reference value) | Ames ([7]; Ames results based on NTP data): −; Results in the conventional in vitro genotoxicity assays [3]: positive results; Average result over three measurements [8]: GTX; Classification of NGTX compounds by the method of the invention (false positives) ([8]; in vivo NGTX compounds): misclassification; At least ⅔ genes +? [8]: GTX |
| CCC[CH2][Sn]([CH2]CCC)([CH2]CCC)[O][Sn]([CH2]CCC)([CH2]CCC)[CH2]CCC [TBTO] | + | 0.604 and 1.649 and 0.208 |  | 0.909 and 0.663 and 0.456 | 0.426 and 0.098 and 0.858 |  | − | GTX | GTX | + (above the reference value) | In vivo GTX ([2]; positive when at least one in vivo assay (MN, CA) positive, equivocal considered positive): +; Average result over three measurements [8]: GTX; At least ⅔ genes +? [8]: GTX |
| Clc1cc2c(cc1Cl)Oc1cc(Cl)c(Cl)cc1O2 [TCDD] | − | 0.169 and −0.21 and 0.104 | − (below the reference value) | −0.041 and 0.26 and 0.072 | −0.107 and 0.056 and 0.151 |  | − | NGTX | NGTX |  |  |
| CCCCCCCCCCCCCC(=O)O[C@@H]1[C@@H](C)[C@@]2(O)[C@@H](C=C(CO)C[C@]3(O)C(=O)C(C)=C[C@@H]23)[C@H]2C(C)(C)[C@]12OC(C)=O [TPA] | − | −0.327 and 1.338 and 0.199 |  | −0.493 and −0.137 and −0.26 | 0.108 and −0.423 and 0.14 | − (below the reference value) | − | NGTX | NGTX | − (below the reference value) |  |
| Cc1cccc(Nc2cc(Cl)nc(SCC(=O)O)n2)c1C [WY] | − | −0.312 and −0.393 and −0.643 | − (below the reference value) | 0.059 and −0.515 and 1.157 | −0.061 and −0.158 and −0.053 | − (below the reference value) |  |  |  |  | At least ⅔ genes +? [9]: NGTX; Average result over three measurements [9]: NGTX; Prediction (class prediction results using the method of the invention) [9]: NGTX; Ames ([7]; Ames results based on NTP data): −; In vivo GTX ([2]; in vivo): −; Standard ([2]; in vivo): NGTX |
